# Reference: patent US9388151B2, “Methods for producing 5-(halomethyl) furfural” (MICROMIDAS, INC., priority 2012, dated 2016)
# Procedure: The amount of solvent and CMF used are detailed in Table 1.
# Once the vials were filled and sealed, each vial was held at the temperatures listed in Table 1 above for 20-30 minutes, at which time a sample was taken and analyzed by HPLC.
# An aliquot was analyzed by HPLC. The following HPLC protocol was used. The column was an Agilent Technologies RX-Sil silica column; 4.6×100 mm packed with 1.8 micron silica beads. Column temperature was maintained at 50° C. Injection volume was 1.0 microliter. Mobile phase composition was 80% hexane and 20% tetrahydrofuran flowing at 1.0 mL/min.
row,SMILES,solubility for CMF
1,CCCCCCCCCCCCCCCCCCCC [Eicosane],relatively low solubility
2,CCCCC [Pentane],relatively low solubility
3,Clc1ccccc1 [Chlorobenzene],relatively soluble

# Results, then the compound that gave them:
row,solubility for CMF,SMILES
1,relatively low solubility,CCCCCCCCCCCCCC [Tetradecane]
2,relatively low solubility,CCCCCC [Hexane]
3,relatively low solubility,CCCCCCCCCC [Decane]
